Test results from patent US10045983B2, “Heteroaryl pyridone and aza-pyrodine compounds” (Genentech, Inc., priority 2011, dated 2018).
Read-outs that look alike come from different tables or passages of the source.

Assay: CD69 Whole Blood Assay (CD69 Hu Blood FACS)
Format: cell-based, human
Conditions: Lymphocyte, human whole blood, anti-IgM activated B lymphocytes, FACS, IC70
Excerpt: A CD69 Whole Blood Assay can be conducted on Formula I compounds to determine the ability of compounds to inhibit the production of CD69 by B lymphocytes in human whole blood activated by crosslinking surface IgM with goat F(ab′)2 anti-human IgM (Example 907). CD69 is a type II C-type lectin involved in lymphocyte migration and cytokine secretion. CD69 expression represents one of the earliest available indicators of leukocyte activation and its rapid induction occurs through transcriptional activation (Vazquez et al (2009) Jour. of Immunology Published Oct. 19, 2009, doi:10.4049/jimmunol.0900839). Concentration-dependent inhibition of antigen receptor stimulation by selective Btk inhibitors induces cell surface expression of the lymphocyte activation marker CD69 (Honigberg et al (2010) Proc. Natl. Acad. Sci. 107(29):13075-13080). Thus, CD69 inhibition by selective Btk inhibitors may be correlated with therapeutic efficacy of certain B-cell disorders.

[1] = Table 2 (unit inferred), read-out: CD69 Hu Blood FACS (IC70)
[2] = Table 1, read-out: CD69 Hu Blood FACS IC70

Row | Compound | IC70 [1] [nM] | IC70 [2] [nM]
1 | C[C@@H]1COC[C@H](C)N1C(=O)c1ccc(Nc2cc(-c3ccnc(N4CCn5c(cc6c5CC(C)(C)C6)C4=O)c3CO)cn(C)c2=O)nc1 [Example 320, 3-[4-[5-[[5-[(3S,5R)-3,5-dimethylmorpholine-4-carbonyl]-2-pyridyl]amino]-1-methyl-6-oxo-3-pyridyl]-3-(hydroxymethyl)-2-pyridyl]-7,7-dimethyl-1,2,6,8-tetrahydrocyclopenta[3,4]pyrrolo[3,5-b]pyrazin-4-one] | 46.8 | –
2 | Cn1cc(-c2ccnc(N3CCc4c(sc5c4CC(C)(C)C5)C3=O)c2CO)cc(Nc2ccc(N3CCN(C4COC4)CC3)cn2)c1=O [Example 109, 2-(3-(Hydroxymethyl)-4-(1-methyl-5-(5-(4-(oxetan-3-yl)piperazin-1-yl)pyridin-2-ylamino)-6-oxo-1,6-dihydropyridin-3-yl)pyridin-2-yl)-4,4-dimethyl-7-thia-10-azatricyclo[6.4.0.0^2,6]dodeca-1(8),2(6)-dien-9-one] | – | 50.1
3 | CC(=O)N1CCn2nc(Nc3cc(-c4ccnc(-n5ncc6c7c(sc6c5=O)CCCC7)c4CO)cn(C)c3=O)cc2C1 [Example 247, 3-[4-[5-[(5-acetyl-6,7-dihydro-4H-pyrazolo[1,5-a]pyrazin-2-yl)amino]-1-methyl-6-oxo-3-pyridyl]-3-(hydroxymethyl)-2-pyridyl]-6,7,8,9-tetrahydrobenzothiopheno[2,3-d]pyridazin-4-one] | 145 | –
4 | C[C@H]1CN(C2COC2)CCN1c1ccc(Nc2cc(-c3ccnc(N4CCn5c(cc6c5CC(C)(C)C6)C4=O)c3CO)n[nH]c2=O)nc1 [Example 253, 3-[3-(hydroxymethyl)-4-[5-[[5-[(2S)-2-methyl-4-(oxetan-3-yl)piperazin-1-yl]-2-pyridyl]amino]-6-oxo-1H-pyridazin-3-yl]-2-pyridyl]-7,7-dimethyl-1,2,6,8-tetrahydrocyclopenta[3,4]pyrrolo[3,5-b]pyrazin-4-one] | 16.4 | –
5 | CN1CCn2nc(Nc3cc(-c4ccnc(-n5ccn6c7c(cc6c5=O)CCCC7)c4CO)cn(C)c3=O)cc2C1 [Example 195, 2-[3-(hydroxymethyl)-4-[1-methyl-5-[(5-methyl-6,7-dihydro-4H-pyrazolo[1,5-a]pyrazin-2-yl)amino]-6-oxo-3-pyridyl]-2-pyridyl]-6,7,8,9-tetrahydropyrazino[1,2-a]indol-1-one] | 101 | –
6 | Cn1cc(-c2ccnc(N3CCc4c(cc5n4CCCC5)C3=O)c2CO)cc(Nc2ccc(N3CCN(C4COC4)CC3)cn2)c1=O [Example 139, 2-(3-(Hydroxymethyl)-4-(1-methyl-5-(5-(4-(oxetan-3-yl)piperazin-1-yl)pyridine-2-ylamino)-6-oxo-1,6-dihydropyridin-3-yl)pyridin-2-yl)-3,4,6,7,8,9-hexahydropyrido[3,4-b]indolizin-1(2H)-one] | – | 326
7 | C[C@@H]1CN(C2COC2)CCN1c1ccc(Nc2cc(-c3ccnc(N4CCn5c(cc6c5CC(C)(C)C6)C4=O)c3CO)cn(C)c2=O)nc1 [Example 153, 2-{3′-Hydroxymethyl-1-methyl-5-[5-((R)-2-methyl-4-oxetan-3-yl-piperazin-1-yl)-pyridin-2-ylamino]-6-oxo-1,6-dihydro-[3,4′]bipyridinyl-2′-yl}-7,7-dimethyl-3,4,7,8-tetrahydro-2H,6H-cyclopenta[4,5]pyrrolo[1,2-a]pyrazin-1-one] | – | 23.8
8 | Cn1cc(-c2ccnc(N3CCn4c(cc5c4CC(C)(C)C5)C3=O)c2CO)cc(Nc2ccc(F)cn2)c1=O [Example 275, 3-[4-[5-[(5-fluoro-2-pyridyl)amino]-1-methyl-6-oxo-3-pyridyl]-3-(hydroxymethyl)-2-pyridyl]-7,7-dimethyl-1,2,6,8-tetrahydrocyclopenta[3,4]pyrrolo[3,5-b]pyrazin-4-one] | 423 | –
9 | C[C@@H]1CN(C2COC2)CCN1c1ccc(Nc2cc(-c3ccnc(-n4ccn5c6c(cc5c4=O)CCCC6)c3CO)cn(C)c2=O)nc1 [Example 151, 2-{3′-Hydroxymethyl-1-methyl-5-[5-((R)-2-methyl-4-oxetan-3-yl-piperazin-1-yl)-pyridin-2-ylamino]-6-oxo-1,6-dihydro-[3,4′]bipyridinyl-2′-yl}-6,7,8,9-tetrahydro-2H-pyrazino[1,2-a]indol-1-one] | – | 45.5
10 | CCc1cc(Nc2cc(-c3ccnc(N4CCn5c(cc6c5CC(C)(C)C6)C4=O)c3CO)cn(C)c2=O)no1 [Example 295, 3-[4-[5-[(5-ethylisoxazol-3-yl)amino]-1-methyl-6-oxo-3-pyridyl]-3-(hydroxymethyl)-2-pyridyl]-7,7-dimethyl-1,2,6,8-tetrahydrocyclopenta[3,4]pyrrolo[3,5-b]pyrazin-4-one] | 134 | –
11 | Cn1cc(-c2ccnc(N3CCn4c(cc5c4CC(C)(C)C5)C3=O)c2CO)nc(Nc2cccc(N)c2)c1=O [Example 219, 3-[4-[6-(3-aminoanilino)-4-methyl-5-oxo-pyrazin-2-yl]-3-(hydroxymethyl)-2-pyridyl]-7,7-dimethyl-1,2,6,8-tetrahydrocyclopenta[3,4]pyrrolo[3,5-b]pyrazin-4-one] | 204 | –
12 | CN1CCN(C)[C@H](c2ccc(Nc3nc(-c4ccnc(N5CCn6c(cc7c6CCCC7)C5=O)c4CO)cn(C)c3=O)cc2)C1=O [Example 114, (R)-2-(4-(6-(4-(1,4-dimethyl-3-oxopiperazin-2-yl)phenylamino)-4-methyl-5-oxo-4,5-dihydropyrazin-2-yl)-3-(hydroxymethyl)pyridin-2-yl)-3,4,6,7,8,9-hexahydropyrazino[1,2-a]indol-1(2H)-one] | – | 80.2
13 | Cn1cc(-c2ccnc(N3CCn4c(cc5c4CCCC5)C3=O)c2CO)cc(Nc2ccc(N3CCN(C4COC4)CC3)cn2)c1=O [Example 103, 2-(3-(Hydroxymethyl)-4-(1-methyl-5-(5-(4-(oxetan-3-yl)piperazin-1-yl)pyridin-2-ylamino)-6-oxo-1,6-dihydropyridin-3-yl)pyridin-2-yl)-3,4,6,7,8,9-hexahydropyrazino[1,2-a]indol-1(2H)-one] | – | 77.6
14 | C[C@H]1CN(C2COC2)CCN1c1ccc(Nc2cc(-c3ccnc(N4CCn5c(cc6c5[C@H]5CC[C@@H]6C5)C4=O)c3CO)cn(C)c2=O)nc1 [Example 171, (S)-2-(3-(hydroxymethyl)-4-(1-methyl-5-(5-(2-methyl-4-(oxetan-3-yl)piperazin-1-yl)pyridin-2-ylamino)-6-oxo-1,6-dihydropyridin-3-yl)pyridin-2-yl)-3,4,6,7,8,9-hexahydro-6,9-methanopyrazino[1,2-a]indol-1(2H)-one] | – | 36
15 | C[C@@H]1CN(c2ccc(Nc3cc(-c4ccnc(N5CCn6c7c(c(F)c6C5=O)CCCC7)c4CO)cn(C)c3=O)nc2)[C@@H](C)CN1C1COC1 [Example 156, 2-{5-[5-((2S,5R)-2,5-Dimethyl-4-oxetan-3-yl-piperazin-1-yl)-pyridin-2-ylamino]-3′-hydroxymethyl-1-methyl-6-oxo-1,6-dihydro-[3,4′]bipyridinyl-2′-yl}-10-fluoro-3,4,6,7,8,9-hexahydro-2H-pyrazino[1,2-a]indol-1-one] | – | 14.5
16 | C[C@H]1COC[C@H](C)N1C(=O)c1ccc(Nc2cc(-c3ccnc(N4CCn5c(cc6c5CC(C)(C)C6)C4=O)c3CO)nn(C)c2=O)nc1 [Example 324, 3-[4-[5-[[5-[(3 S,5 S)-3,5-dimethylmorpholine-4-carbonyl]-2-pyridyl]amino]-1-methyl-6-oxo-pyridazin-3-yl]-3-(hydroxymethyl)-2-pyridyl]-7,7-dimethyl-1,2,6,8-tetrahydrocyclopenta[3,4]pyrrolo[3,5-b]pyrazin-4-one] | 85.8 | –
17 | Cn1cc(-c2ccnc(N3CCn4c(cc5c4CCCC5)C3=O)c2CO)cc(Nc2ccc(N3CCN(CC(C)(C)O)CC3)cn2)c1=O [Example 120, 2-(4-(5-(5-(4-(2-Hydroxy-2-methylpropyl)piperazin-1-yl)pyridin-2-ylamino)-1-methyl-6-oxo-1,6-dihydropyridin-3-yl)-3-(hydroxymethyl)pyridin-2-yl)-3,4,6,7,8,9-hexahydropyrazino[1,2-a]indol-1(2H)-one] | – | 283
18 | Cc1ccc(Nc2cc(-c3ccnc(N4CCn5c(cc6c5CC(C)(C)C6)C4=O)c3CO)cn(C)c2=O)nc1 [Example 281, 3-[3-(hydroxymethyl)-4-[1-methyl-5-[(5-methyl-2-pyridyl)amino]-6-oxo-3-pyridyl]-2-pyridyl]-7,7-dimethyl-1,2,6,8-tetrahydrocyclopenta[3,4]pyrrolo[3,5-b]pyrazin-4-one] | 718 | –
19 | Cn1cc(-c2ccnc(N3CCn4c(cc5c4CCCC5)C3=O)c2CO)cc(Nc2cnc(N3CCN(C4COC4)CC3)cn2)c1=O [Example 189, 2-(3-(hydroxymethyl)-4-(1-methyl-5-(5-(4-(oxetan-3-yl)piperazin-1-yl)pyrazin-2-ylamino)-6-oxo-1,6-dihydropyridin-3-yl)pyridin-2-yl)-3,4,6,7,8,9-hexahydropyrazino[1,2-a]indol-1(2H)-one] | – | 652
20 | CN1CC(Oc2ccc(Nc3cc(-c4ccnc(N5CCn6c(cc7c6CCCC7)C5=O)c4CO)cn(C)c3=O)nc2)C1 [Example 206, 2-[3-(hydroxymethyl)-4-[1-methyl-5-[[5-(1-methylazetidin-3-yl)oxy-2-pyridyl]amino]-6-oxo-3-pyridyl]-2-pyridyl]-3,4,6,7,8,9-hexahydropyrazino[1,2-a]indol-1-one] | 150 | –
21 | CN1CC(Oc2ccc(Nc3cc(-c4ccnc(N5CCn6c(cc7c6CC(C)(C)C7)C5=O)c4CO)cn(C)c3=O)nc2)C1 [Example 207, 3-[3-(hydroxymethyl)-4-[1-methyl-5-[[5-(1-methylazetidin-3-yl)oxy-2-pyridyl]amino]-6-oxo-3-pyridyl]]-7,7-dimethyl-1,2,6,8-tetrahydrocyclopenta[3,4]pyrrolo[3,5-b]pyrazin-4-one] | 41.4 | –
